Starred links: 1 amine or outer side, 2 acyl side, 3 side chain; linkers in the order of their positions; H or OH if unused. Non-standard residues stand in square brackets, D forms with d. Residues, ends and D or L forms follow the SMILES beside them. Groups on a side chain read outwards from the residue. *: point of attachment. C18 diacid = O=C(O)CCCCCCCCCCCCCCCCC(=O)*; γGlu = O=C(O)[C@H](CCC(=O)[*:2])N[*:1]; αMeF = C[C@](N)(Cc1ccccc1)C(=O)O; AEEA = NCCOCCOCC(=O)O; Aib = CC(C)(N)C(=O)O
Tests used:
[1] = target: human GLP-1 receptor (hGLP-1R) (Homo sapiens, UniProt P43220); assay: cAMP production (HTRF) in CHO cells expressing hGLP-1R; assay type: cell-based; design: expressed in transfected cells; conditions: for EC50: Table 7, peptides modified at position 20, cAMP in CHO hGLP-1R cells, geometric mean, read-out: hGLP-1R EC50; for % Relative Potency Ratio: Table 7, % GLP-1R activity relative to GLP-1 / % GlucR activity relative to glucagon
human GLP-1 receptor (hGLP-1R), sequence (P43220 24-463): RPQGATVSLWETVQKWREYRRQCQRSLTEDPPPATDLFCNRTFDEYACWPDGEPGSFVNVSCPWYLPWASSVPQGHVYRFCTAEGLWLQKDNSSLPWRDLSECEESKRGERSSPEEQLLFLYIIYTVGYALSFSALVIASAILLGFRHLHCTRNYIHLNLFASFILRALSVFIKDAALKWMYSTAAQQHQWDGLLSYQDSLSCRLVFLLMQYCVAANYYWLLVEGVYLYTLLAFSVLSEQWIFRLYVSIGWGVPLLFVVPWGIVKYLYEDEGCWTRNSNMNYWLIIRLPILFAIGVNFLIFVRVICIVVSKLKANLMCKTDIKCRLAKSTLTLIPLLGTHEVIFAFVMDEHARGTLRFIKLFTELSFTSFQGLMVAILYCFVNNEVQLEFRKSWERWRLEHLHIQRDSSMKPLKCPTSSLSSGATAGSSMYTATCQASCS
Outline: (§1)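 Cells were resuspended in assay buffer at batch-optimized density, typically 1×10^5 cells/mL for hGLP-1R and 2×10^5 cells/mL for hGCGR. After 30 min incubation at room temperature with compound, cAMP was measured by two-step HTRF. EC50 values came from 4-parameter logistic fits of % Delta F.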

[2] = target: human glucagon receptor (hGCGR) (Homo sapiens, UniProt P47871); assay: cAMP production (HTRF) in CHO cells expressing hGCGR; assay type: cell-based; design: expressed in transfected cells; conditions: Table 7, peptides modified at position 20; cAMP in CHO hGCGR cells; geometric mean; read-out: hGluc-R EC50
human glucagon receptor (hGCGR), sequence (P47871 26-477): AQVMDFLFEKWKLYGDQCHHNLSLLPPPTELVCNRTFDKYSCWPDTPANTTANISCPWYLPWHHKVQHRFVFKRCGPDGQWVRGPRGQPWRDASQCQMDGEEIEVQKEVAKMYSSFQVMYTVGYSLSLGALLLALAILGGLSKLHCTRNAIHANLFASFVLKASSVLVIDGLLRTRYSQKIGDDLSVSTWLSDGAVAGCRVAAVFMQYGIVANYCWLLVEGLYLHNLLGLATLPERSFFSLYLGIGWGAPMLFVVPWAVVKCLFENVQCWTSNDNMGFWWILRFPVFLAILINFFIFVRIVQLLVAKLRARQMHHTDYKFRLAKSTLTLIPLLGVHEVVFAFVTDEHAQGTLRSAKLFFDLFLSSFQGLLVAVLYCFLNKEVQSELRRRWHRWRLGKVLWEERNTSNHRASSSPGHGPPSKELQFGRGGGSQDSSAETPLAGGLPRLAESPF
Outline: as §1

| Structure (SMILES) | EC50 [1] | % Relative Potency Ratio [1] | EC50 [2] |
| --- | --- | --- | --- |
| CC[C@H](C)[C@H](NC(=O)C(C)(C)NC(=O)[C@H](CCC(N)=O)NC(=O)[C@@H](NC(=O)[C@](C)(Cc1ccccc1)NC(=O)[C@H](CC(=O)O)NC(=O)[C@H](CCCCNC(=O)COCCOCCNC(=O)COCCOCCNC(=O)CCCCCCCCCCCCCCCCC(=O)O)NC(=O)[C@H](C)NC(=O)[C@H](C)NC(=O)[C@H](CCCNC(=N)N)NC(=O)[C@H](CO)NC(=O)[C@H](CC(=O)O)NC(=O)[C@H](CC(C)C)NC(=O)[C@](C)(Cc1ccccc1)NC(=O)[C@H](CCCCN)NC(=O)[C@H](CO)NC(=O)[C@@H](NC(=O)[C@H](CC(=O)O)NC(=O)[C@H](CO)NC(=O)[C@@H](NC(=O)[C@](C)(Cc1ccccc1)NC(=O)[C@H](CO)NC(=O)CNC(=O)[C@H](Cc1c[nH]cn1)NC(=O)C(C)(C)NC(=O)[C@@H](N)Cc1c[nH]cn1)[C@@H](C)O)C(C)C)C(C)C)C(=O)N[C@@H](C)C(=O)N[C@@H](CC(N)=O)C(=O)N[C@H](C(N)=O)[C@@H](C)O [Peptide 272] (H-H[Aib]HGS[αMeF]TSDVSK[αMeF]LDSRAAK([AEEA-AEEA-C18 diacid])D[αMeF]VQ[Aib]IANT-NH2) | 15.7 pM | 1.8 | 14.3 pM |
| CC[C@H](C)[C@H](NC(=O)C(C)(C)NC(=O)[C@H](CCC(N)=O)NC(=O)[C@@H](NC(=O)[C@](C)(Cc1ccccc1)NC(=O)[C@H](CC(=O)O)NC(=O)[C@H](CCCCNC(=O)COCCOCCNC(=O)CCCCCCCCCCCCCCCCC(=O)O)NC(=O)[C@H](C)NC(=O)[C@H](C)NC(=O)[C@H](CCCNC(=N)N)NC(=O)[C@H](CO)NC(=O)[C@H](CC(=O)O)NC(=O)[C@H](CC(C)C)NC(=O)[C@](C)(Cc1ccccc1)NC(=O)[C@H](CCCCN)NC(=O)[C@H](CO)NC(=O)[C@@H](NC(=O)[C@H](CC(=O)O)NC(=O)[C@H](CO)NC(=O)[C@@H](NC(=O)[C@](C)(Cc1ccccc1)NC(=O)[C@H](CO)NC(=O)CNC(=O)[C@H](Cc1c[nH]cn1)NC(=O)C(C)(C)NC(=O)[C@@H](N)Cc1c[nH]cn1)[C@@H](C)O)C(C)C)C(C)C)C(=O)N[C@@H](C)C(=O)N[C@@H](CC(N)=O)C(=O)N[C@H](C(N)=O)[C@@H](C)O [Peptide 273] (H-H[Aib]HGS[αMeF]TSDVSK[αMeF]LDSRAAK([AEEA-C18 diacid])D[αMeF]VQ[Aib]IANT-NH2) | 22.1 pM | 2.1 | 23.3 pM |
| CC[C@H](C)[C@H](NC(=O)C(C)(C)NC(=O)[C@H](CCC(N)=O)NC(=O)[C@@H](NC(=O)[C@](C)(Cc1ccccc1)NC(=O)[C@H](CC(=O)O)NC(=O)[C@H](CCCCNC(=O)COCCOCCNC(=O)CC[C@H](NC(=O)CC[C@H](NC(=O)CCCCCCCCCCCCCCCCC(=O)O)C(=O)O)C(=O)O)NC(=O)[C@H](C)NC(=O)[C@H](C)NC(=O)[C@H](CCCNC(=N)N)NC(=O)[C@H](CO)NC(=O)[C@H](CC(=O)O)NC(=O)[C@H](CC(C)C)NC(=O)[C@](C)(Cc1ccccc1)NC(=O)[C@H](CCCCN)NC(=O)[C@H](CO)NC(=O)[C@@H](NC(=O)[C@H](CC(=O)O)NC(=O)[C@H](CO)NC(=O)[C@@H](NC(=O)[C@](C)(Cc1ccccc1)NC(=O)[C@H](CO)NC(=O)CNC(=O)[C@H](Cc1c[nH]cn1)NC(=O)C(C)(C)NC(=O)[C@@H](N)Cc1c[nH]cn1)[C@@H](C)O)C(C)C)C(C)C)C(=O)N[C@@H](C)C(=O)N[C@@H](CC(N)=O)C(=O)N[C@H](C(N)=O)[C@@H](C)O [Peptide 274] (H-H[Aib]HGS[αMeF]TSDVSK[αMeF]LDSRAAK([AEEA-γGlu-γGlu-C18 diacid])D[αMeF]VQ[Aib]IANT-NH2) | 27.1 pM | 2.3 | 31.3 pM |

From patent US20250353891A1 (MEDIMMUNE LIMITED, priority 2022, published 2025)
